Assay results taken from patent US6455577B2, “Flavanone derivatives and composition for preventing or treating blood lipid level-related diseases comprising same” (Korea Research Institute of Bioscience and Biotechnology, priority 2000, dated 2002).

Tested on: ACAT
Assay: ACAT activity in fed rabbits
Type: in vivo, rabbit
Conditions: rabbits fed 1% cholesterol plus 1 mg/kg Lovastatin or 0.1% NG5006, 8 weeks
Procedure: 22 three-month-old New Zealand White rabbits(Yeonam Horticulture and Animal Husbandry College, Korea) each weighing about 2.0 to 2.3 kg were bred under a condition of temperature 20±2° C., relative humidity 55±10%, and photoperiod 12L/12D. The rabbits were divided two groups of 6 rabbits and a group of 10 rabbits, and the rats of three groups were fed with three different diets, i.e., RC4 diet(Oriental Yeast Co., Japan) containing 1% cholesterol(Control group); 1% cholesterol plus 1 mg/kg Lovastatin® (Merck, U.S.A.)(Comparative group); and 1% cholesterol plus 0.1% NG5006, respectively. RC4 diet comprises 7.6% moisture, 22.8% crude protein, 2.8% crude fat, 8.8% crude ash, 14.4% crude cellulose and 43.6% soluble nitrogen-free substances. The rabbits were bred for 8 weeks while being allowed free access to the diets and water.
The effect of feeding NG5006 to rabbits on the activities of ACAT was determined using the rabbits bred in Step 1 of Example 14 in accordance with procedure disclosed in step 1 of Example 13.

With `CCCCCCCCCCCCCCCCOc1cc(O)c2c(c1)OC(c1ccc(O)cc1)CC2=O` (centres unmarked) [NG5006, Naringenin 7-O-cetyl Ether] the ACAT activity was 215.2 ± 30.3 pmole/min/mg protein and the “% Inhibition on ACAT Activity” value (versus control group) was 16.2%.
